Results as given in ChEMBL document CHEMBL5543083, “3,5-Disubstituted-thiazolidine-2,4-dione hybrids as antidiabetic agents: Design, synthesis, in-vitro and In vivo evaluation” (Eur J Med Chem, 2024).
Converted amounts (≈) assume the structure as drawn. The source made the active and inactive calls. No cut-off for these calls is given here.

Experiments:
Alpha-glucosidase = Alpha-glucosidase (Saccharomyces cerevisiae S288c, UniProt P53341+P38158+P07265); assay: Inhibition of yeast Alpha glucosidase 4-nitrophenyl-alpha-D-glucopyranoside incubated for 15 to 20 mins by Bio-rad microplate reader analysis; format: protein assay
[1] = Antioxidant activity assessed as DPPH radical scavenging activity measured for 30 mins by spectrophotometric analysis; format: functional
PANC-1 [2] = assay: Cytotoxicity against human PANC-1 cells assessed as inhibition of cell growth; format: functional, cell-based
PANC-1 [3] = assay: Induction of ROS production in high glucose-induced human PANC-1 cells assessed as maximum fluorescence intensity at 10 uM incubated for 30 mins DCFDA-staining based flow cytometry analysis (reference value: 15.09); format: functional; conditions: 0.5 h
Alpha-amylase = target: T1, Alpha-amylase (Sus scrofa domesticus, UniProt Q7M328); assay: Inhibition of porcine pancreatic Alpha-amylase using starch as substrate preincubated for 10 mins followed by substrate addition and measured after 15 mins by Bio-rad microplate reader analysis
T1 sequence (Q7M328 whole entry): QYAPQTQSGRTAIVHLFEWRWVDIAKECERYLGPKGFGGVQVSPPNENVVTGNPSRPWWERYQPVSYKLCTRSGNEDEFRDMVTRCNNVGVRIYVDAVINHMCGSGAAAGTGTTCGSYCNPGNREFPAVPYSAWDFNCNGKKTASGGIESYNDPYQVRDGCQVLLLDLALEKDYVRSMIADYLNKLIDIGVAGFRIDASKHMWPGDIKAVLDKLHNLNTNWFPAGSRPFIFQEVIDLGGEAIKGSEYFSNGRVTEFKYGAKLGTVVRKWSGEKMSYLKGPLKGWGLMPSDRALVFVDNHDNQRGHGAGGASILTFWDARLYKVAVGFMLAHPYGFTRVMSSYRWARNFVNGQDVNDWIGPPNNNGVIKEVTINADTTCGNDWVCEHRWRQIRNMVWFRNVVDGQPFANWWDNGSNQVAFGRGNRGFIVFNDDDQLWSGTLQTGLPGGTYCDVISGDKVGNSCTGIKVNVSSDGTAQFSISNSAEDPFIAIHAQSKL

Rattus norvegicus [4] = assay: Antidiabetic activity against streptozotocin-induced Wistar rat assessed as increase in serum ALP level at 10 mg/kg, po measured upto 35 days; format: functional, organism-based; conditions: time <= 35.0 day
[5] = Toxicity in Wistar rat assessed as decrease in body weight at 10 mg/kg, po measured on day 35; format: organism-based; conditions: in vivo, 840 h, time 35 day
Rattus norvegicus [6] = assay: Antidiabetic activity against streptozotocin-induced Wistar rat assessed as decrease in blood glucose level at 10 mg/kg, po measured at 30 mins by oral glucose test; format: functional, organism-based
[7] = Toxicity in streptozotocin-induced Wistar rat assessed as morphological changes in liver at 10 mg/kg, po measured up to 35 days; format: organism-based; conditions: in vivo, 840 h, time < 35 day
Rattus norvegicus [8] = assay: Antidiabetic activity against streptozotocin-induced Wistar rat assessed as decrease in SOD level at 10 mg/kg, po measured upto 35 days; format: functional, organism-based; conditions: time <= 35.0 day
Rattus norvegicus [9] = assay: Antidiabetic activity against streptozotocin-induced Wistar rat assessed as effect on blood glucose level at 10 mg/kg, po measured on day 4; format: functional, organism-based; conditions: time 4.0 day
Rattus norvegicus [10] = assay: Antidiabetic activity against streptozotocin-induced Wistar rat assessed as decrease in triglyceride level at 10 mg/kg, po measured upto 35 days; format: functional, organism-based; conditions: time <= 35.0 day
Rattus norvegicus [11] = assay: Antidiabetic activity against streptozotocin-induced Wistar rat assessed as increase in PPAR-gamma level at 10 mg/kg, po measured upto 35 days by ELISA analysis; format: functional, organism-based; conditions: time <= 35.0 day
Rattus norvegicus [12] = assay: Antidiabetic activity against streptozotocin-induced Wistar rat assessed as decrease in MDA level at 10 mg/kg, po measured upto 35 days; format: functional, organism-based; conditions: time <= 35.0 day
Rattus norvegicus [13] = assay: Antidiabetic activity against streptozotocin-induced Wistar rat assessed as decrease in HDL level at 10 mg/kg, po measured upto 35 days; format: functional, organism-based; conditions: time <= 35.0 day
Rattus norvegicus [14] = assay: Antidiabetic activity against Wistar rat assessed as effect on glutathione level at 10 mg/kg, po measured upto 35 days; format: functional, organism-based; conditions: time <= 35.0 day
[15] = Toxicity in Wistar rat assessed as decrease in body weight at 10 mg/kg, po measured on day 14; format: organism-based; conditions: in vivo, 336 h, time 14 day
Rattus norvegicus [16] = assay: Antidiabetic activity against streptozotocin-induced Wistar rat assessed as effect on blood glucose level at 10 mg/kg, po measured on day 1; format: functional, organism-based; conditions: time 1.0 day
Rattus norvegicus [17] = assay: Antidiabetic activity against streptozotocin-induced Wistar rat assessed as increase in IL1-beta level in Pancreas at 10 mg/kg, po measured upto 35 days; format: functional, organism-based; conditions: time <= 35.0 day
[18] = Toxicity in streptozotocin-induced Wistar rat assessed as change in blood lymphocyte count at 10 mg/kg, po measured up to 35 days; format: organism-based; conditions: in vivo, 840 h, time < 35 day
[19] = Toxicity in streptozotocin-induced Wistar rat assessed as decrease in glomeruli shrinkage in kidney at 10 mg/kg, po measured up to 35 days; format: organism-based; conditions: in vivo, 840 h, time < 35 day
[20] = Inhibition of Alpha glucosidase (unknown origin); design: species or system Homo sapiens
Alpha amylase = target: T2, Alpha amylase (Homo sapiens, UniProt P0DUB6); assay: Inhibition of Alpha-amylase (unknown origin); format: protein assay
T2 sequence (P0DUB6 whole entry): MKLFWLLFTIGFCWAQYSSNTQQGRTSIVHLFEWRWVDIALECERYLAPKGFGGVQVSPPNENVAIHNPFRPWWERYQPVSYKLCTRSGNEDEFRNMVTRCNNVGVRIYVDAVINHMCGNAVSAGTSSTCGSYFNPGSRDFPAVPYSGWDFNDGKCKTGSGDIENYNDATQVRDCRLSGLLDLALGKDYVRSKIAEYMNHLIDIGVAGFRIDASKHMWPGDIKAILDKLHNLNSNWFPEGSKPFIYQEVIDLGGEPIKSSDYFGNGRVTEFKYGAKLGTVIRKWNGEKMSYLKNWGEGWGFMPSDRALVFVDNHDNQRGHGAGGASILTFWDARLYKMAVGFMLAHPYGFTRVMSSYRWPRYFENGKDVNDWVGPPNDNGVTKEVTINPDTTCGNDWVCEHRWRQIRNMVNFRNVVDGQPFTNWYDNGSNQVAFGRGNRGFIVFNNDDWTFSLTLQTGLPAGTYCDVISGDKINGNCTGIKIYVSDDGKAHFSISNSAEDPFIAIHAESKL

[21] = Homo sapiens, PANC-1, read-out: IC50

| Compound | IC50 (Alpha-glucosidase) [µM] | IC50 ([1]; read-out: IC50) [µM] | IC50 (PANC-1 [2]; [21]) [µM] | Flu intensity (PANC-1 [3]) | IC50 (Alpha-amylase; read-out: IC50) [µM] | also measured |
| --- | --- | --- | --- | --- | --- | --- |
| O=C1S/C(=C\c2c[nH]c3ccccc23)C(=O)N1Cc1ccccc1 | 25.76 | 30.2 | 191 | 22679 | 82.2 | – |
| CN(C)c1ccc(/C=C2\SC(=O)N(Cc3cccc([N+](=O)[O-])c3)C2=O)cc1 | 16.9 | 211 | 194 | 76992 | 81.1 | – |
| O=C1S/C(=C\c2ccc(Cl)cc2)C(=O)N1Cc1cccc([N+](=O)[O-])c1 | 22.61 | 32.2 | 94.9 | – | 44.7 | – |
| COc1cc(/C=C2\SC(=O)N(Cc3cccc([N+](=O)[O-])c3)C2=O)ccc1O | 19.73 | 38.1 | 190 | 66221 | 40.5 | – |
| COc1cccc(/C=C2\SC(=O)N(Cc3cccc([N+](=O)[O-])c3)C2=O)c1OC | 153.1 | 13.6 | 179 | 2271 | 79.1 | – |
| O=C1O[C@H]([C@@H](O)CO)C(O)=C1O [ASCORBIC ACID] | – | 25.1 | – | – | – | IC50 (Alpha-amylase): Not Active |
| CCc1ccc(CCOc2ccc(CC3SC(=O)NC3=O)cc2)nc1 (centres undefined) [PIOGLITAZONE] | – | – | – | – | – | Activity (Rattus norvegicus [4]): Active; Activity [5]: Toxic; Activity (Rattus norvegicus [6]): Active; Activity [7]: Non-Toxic; Activity (Rattus norvegicus [8]): Active; Activity (Rattus norvegicus [9]): Active; Activity (Rattus norvegicus [10]): Active; Activity (Rattus norvegicus [11]): Active; Activity (Rattus norvegicus [12]): Active; Activity (Rattus norvegicus [13]): Active; Activity (Rattus norvegicus [14]): Active; Activity [15]: Non-Toxic; Activity (Rattus norvegicus [16]): Active; Activity (Rattus norvegicus [17]): Active; Activity [18]: Non-Toxic; Activity [19]: Toxic |
| COc1cc(OC)c(OC)cc1/C=C1\SC(=O)N(Cc2cccc([N+](=O)[O-])c2)C1=O | 54.01 | 30.6 | 203 | 25238 | 30.8 | – |
| O=C1S/C(=C\c2ccc(O)cc2)C(=O)N1Cc1cccc([N+](=O)[O-])c1 | 29.28 | 34.9 | 32 | 35829 | 42.9 | – |
| O=C1S/C(=C\c2c(Cl)cccc2Cl)C(=O)N1Cc1cccc([N+](=O)[O-])c1 | 37.94 | 31.1 | 123 | 25204 | 25.1 | – |
| COc1cc(/C=C2\SC(=O)N(Cc3cccc([N+](=O)[O-])c3)C2=O)cc(OC)c1OC | 39.68 | 68 | 195 | – | 39.3 | – |
| COc1ccc(/C=C2\SC(=O)N(Cc3cccc([N+](=O)[O-])c3)C2=O)c(OC)c1 | 65.52 | 32.1 | 166 | 37797 | 30.2 | – |
| C=CCN1C(=O)S/C(=C\c2ccc(Cl)cc2Cl)C1=O | – | – | – | – | – | IC50 [20]: 18.19 µg/mL (≈ 57.9 µM); IC50 (Alpha amylase): 43.85 µg/mL (≈ 140 µM) |
| COc1ccc(OC)c(/C=C2\SC(=O)N(Cc3cccc([N+](=O)[O-])c3)C2=O)c1 | 201 | 41.8 | 62.6 | 58455 | 48.1 | – |
| COc1ccc(/C=C2\SC(=O)N(Cc3cccc([N+](=O)[O-])c3)C2=O)cc1O | 32.94 | 70.9 | 215 | 72737 | 28 | – |
| N#Cc1ccccc1-c1ccc(N2C(=O)S/C(=C\c3ccccc3Oc3ccccc3)C2=O)cc1 | – | – | – | – | – | IC50 (Alpha amylase): 0.13 µg/mL (≈ 0.274 µM) |
| COc1cc(OC)c(/C=C2\SC(=O)N(Cc3cccc([N+](=O)[O-])c3)C2=O)c(OC)c1 | 11.37 | 28.4 | 178 | 22596 | 44.6 | – |
| O=C1S/C(=C\c2ccc3c(c2)OCO3)C(=O)N1Cc1cn(-c2ccccc2Cl)nn1 | – | – | – | – | – | IC50 [20]: 0.1 µg/mL (≈ 0.227 µM) |
| O=C1S/C(=C\c2cccc(Cl)c2Cl)C(=O)N1Cc1cccc([N+](=O)[O-])c1 | 54 | 44.6 | 179 | 65017 | 30.4 | – |
| O=C1S/C(=C\c2ccc(-c3ccccc3)cc2)C(=O)N1Cc1cccc([N+](=O)[O-])c1 | 15.37 | 32.6 | 126 | 23092 | 82.2 | – |
| COc1ccc(/C=C2\SC(=O)N(Cc3cccc([N+](=O)[O-])c3)C2=O)cc1 | 57.1 | 325 | 104 | 84568 | 118 | – |
| O=C(O)CN1C(=O)S/C(=C\c2cn(-c3ccccc3)nc2-c2ccc([N+](=O)[O-])cc2)C1=O | – | – | – | – | – | IC50 (Alpha amylase): 4.08 µg/mL (≈ 9.06 µM) |
| C[C@H]1O[C@H](O[C@H]2[C@H](O)[C@@H](O)[C@@H](O[C@H]3[C@H](O)[C@@H](O)C(O)O[C@@H]3CO)O[C@@H]2CO)[C@H](O)[C@@H](O)[C@@H]1N[C@H]1C=C(CO)[C@@H](O)[C@H](O)[C@H]1O (some centres undefined) [ACARBOSE] | – | – | – | 1455 | – | IC50 [1]: Not Active; IC50 (PANC-1 [2]; panc-1): Not Active |
